From ChEMBL document CHEMBL6103597, “Opto-Epigenetic Regulation of Histone Arginine Asymmetric Dimethylation via Type I Protein Arginine Methyltransferase Inhibition” (J Med Chem, 2025) come the findings set out here.

Active and inactive are the calls of the source. The rule behind the calls is not given here.

Data set [1] relates to A549. Briefly: Effect on cell cycle-related pathway in human A549 cells at 0.1 uM incubated for 24 hrs by GSEA analysis. Format: functional, cell-based.
Data set [2] deals with A549. Briefly: Effect on transcriptomic profile in human A549 cells at 0.1 uM incubated for 24 hrs followed by light irradiation at 420 nm for 4 mins by RNA-sequencing analysis. To be noted: time 1444.0 min. Format: functional, cell-based.
The subject of data set [3] is A549. Briefly: Effect on transcriptomic profile in human A549 cells at 0.1 uM incubated for 24 hrs by RNA-sequencing analysis. Format: functional, cell-based.
Data set [4] concerns A549. Briefly: Effect on cell cycle-related pathway in human A549 cells at 0.1 uM incubated for 24 hrs followed by light irradiation at 420 nm for 4 mins by GSEA analysis. The data set is classed as functional, cell-based. To be noted: time 1444.0 min.
The nature of data set [5]: Stability in PBS buffer at pH 7.4 at 37 degreeC assessed as compound remaining under dark condition measured for 72 hrs by HPLC analysis. The data set is classed as physicochemical. To be noted: read-out: Stability.
The subject of data set [6] is A549. Put plainly: Effect on DNA replication-related pathway in human A549 cells at 0.1 uM incubated for 24 hrs by GSEA analysis. Format: functional, cell-based.
Data set [7] has as its system A549. Briefly: Antiproliferative activity against human A549 cells assessed as cell viability at 10 uM incubated for 24 hrs followed by light irradiation at 420 nm for 4 mins and measured after 48 hrs by MTT assay relative to control. Format: functional. The note with it: A549, light or radiation study, 72.07 h, time 4324 min, read-out: Activity.
Data set [8] has as its system A549. Put plainly: Effect on DNA replication-related pathway in human A549 cells at 0.1 uM incubated for 24 hrs followed by light irradiation at 420 nm for 4 mins by GSEA analysis. The data set is classed as functional, cell-based. To be noted: time 1444.0 min.
Data set [9] can be described thus: Photochemical property of compound assessed as maximum fluorescence emission wavelength at 10 uM upon visible light irradiation at 420 nm by UV-Vis absorption spectroscopy. Format: physicochemical.
The nature of data set [10]: Prodrug photolysis assessed as drug degradation at 10 uM upon light irradiation at 420 nm for upto 4 mins by HPLC analysis. Format: ADME.
Data set [11] can be described thus: Photochemical property of compound assessed as hypsochromic shift by measuring maximum absorption peak wavelength at 10 uM upon visible light irradiation at 420 nm by UV-Vis absorption spectroscopy. The data set is classed as physicochemical.
The test system of data set [12] is A549. Put plainly: Antiproliferative activity against human A549 cells assessed as cell viability at 10 uM incubated for 72 hrs by MTT assay relative to control. The data set is classed as functional. To be noted: read-out: Activity.
The test system of data set [13] is A549. Put plainly: Effect on transcriptomic profile in human A549 cells assessed as differentially expressed genes at 0.1 uM incubated for 24 hrs followed by light irradiation at 420 nm for 4 mins by RNA-sequencing analysis relative to control. Format: functional. To be noted: time 1444 min, 24.07 h.
Data set [14] relates to HUVEC. Briefly: Cytotoxicity against HUVEC cells at 50 uM incubated for 72 hrs under dark condition. Format: toxicity, cell-based. To be noted: human.
Data set [15] addresses Protein arginine N-methyltransferase 6 (Homo sapiens) (UniProt Q96LA8). Put plainly: Inhibition of PRMT6 in human A549 cells assessed as decrease in H4R3me2a level at 0.1 uM incubated for 24 hrs by Western blot analysis. The data set is classed as cell-based. Background: Immunoblotting shows a protein as a band on a membrane.
For data set [16] the target is unchanged. Briefly: Inhibition of PRMT6 in human A549 cells assessed as decrease in H3R2me2a level at 0.1 uM incubated for 24 hrs by Western blot analysis. Format: cell-based.

Chain of Protein arginine N-methyltransferase 6 (Homo sapiens) (Q96LA8 whole entry, looked up): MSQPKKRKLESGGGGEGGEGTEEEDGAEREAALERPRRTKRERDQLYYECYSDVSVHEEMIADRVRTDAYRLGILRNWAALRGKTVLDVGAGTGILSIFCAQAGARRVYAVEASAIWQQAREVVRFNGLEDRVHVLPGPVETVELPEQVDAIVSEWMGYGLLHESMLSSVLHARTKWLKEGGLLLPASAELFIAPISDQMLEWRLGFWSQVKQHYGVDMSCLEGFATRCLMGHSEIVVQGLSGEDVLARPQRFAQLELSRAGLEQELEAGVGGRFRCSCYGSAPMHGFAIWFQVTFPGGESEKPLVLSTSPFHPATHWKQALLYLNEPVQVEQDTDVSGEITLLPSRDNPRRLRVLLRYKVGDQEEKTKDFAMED

On to `CCN(CC)c1ccc2c(COC(=O)NCCN(C)Cc3c[nH]cc3-c3ccc(OC(C)C)cc3)cc(=O)oc2c1`, for which the Activity entry was “No effect” in [1]; “Active; About 5.4:1 Ratio Between Down-Regulated And Upregulated Genes Observed” in data set [2]; “No effect” in [3]; “Active; Downregulation Of Gene Sets Observed” in data set [4]; “No effect” in data set [6]; “Active; Downregulation Of Gene Sets Observed” in data set [8]. Further, the Activity is given as 470 nm in data set [9], 380 nm in data set [11], approximately 56% in [13] and “Non-toxic” in data set [14]. Moreover, the remaining at 72 h in data set [5] was more than 75%. The viability at 10 µM in data set [7] came out at 79.4%; in data set [12] it was 94.6%. The Stability result in [10] is reported as “Unstable”.

Take `CC(C)Oc1ccc(-c2c[nH]cc2CN(C)CCN)cc1`: the inhibition entry in [15] and in [16] was “Active” throughout.
